In patent US8426202B2, “Cell culture medium” (Cellca GmbH, priority 2005, dated 2013):
“And” between values parts separate entries of the source, which are not always exact repeats. Identical values can stand only once. Like-named read-outs stand apart in the source and are kept apart here.

How the values were obtained:
[1] = system: CHO cell line that expresses an antibody; settings: fed-batch, basal medium 4 mM glutamine, feed with 3 g/l Ala-Gln and 3 g/l Gly-Gln, substance 0.5-1 g/l
Method: (§1) A CHO cell line that expresses an antibody was used for the experiments.
The experiments were carried out either in batch mode or in fed-batch mode. When the process was carried out in fed-batch mode, the process was first started in batch mode in the above-mentioned basal medium and cells were cultivated in this manner for 1-4 days. After 1-4 days the cells were supplemented with a feed medium, i.e. the process was switched to fed-batch mode. Feed took place at regular intervals. In fed-batch experiments, a protein-free and serum-free feed medium from the company HyQ (R05.2 supplement, Cat. No.: SH30584.04, Lot No.: APF21457G) was used.
From the stock solutions, the substances were put at the desired final concentration in culture tubes. The various culture tubes prepared in this way were finally inoculated with the antibody-producing CHO-clone at a target inoculation cell concentration (1-3×10^5/ml). For this, the corresponding amount of inoculum cells was calculated and the required amount of inoculum cell suspension was centrifuged. […] In this way the desired inoculation cell concentration was adjusted in the cell suspension being investigated. The cell suspension thus prepared was proportioned in the culture tubes, which were provided with the substances according to the invention beforehand. The culture tubes were incubated at 37° C., and 8% CO2 atmosphere, with shaking. The culture tubes were cultivated for 8-11 days in the batch mode or in the fed-batch mode. Samples for offline measurement of the variables were taken from the culture vessels at regular intervals, for example daily or on every third day. The metabolic variables and cell concentrations of the samples were measured. Cell concentration and cell vitality were measured with a CeDex instrument. The metabolic variables (glucose, lactate, glutamine and ammonium) were determined with an analyzer (BioProfile 100).
(§2) The following final concentrations of the substances according to the invention were established in a nutrient medium after inoculation:
The substances according to the invention were tested under fed-batch conditions. […] The feed medium used was from the company HyQ (R05.2 supplement, Cat. No.: SH30584.04, Lot No.: APF21457G). 3 g/l alanyl-glutamine (Ala-Gin) and 3 g/l glycyl-glutamine (Gly-Gln) were added to the feed medium.

[2] = system: CHO cell line that expresses an antibody; settings: fed-batch; substance 1 g/l; supernatant, ELISA; absolute value of the control set at 100%
Method: A CHO cell line that expresses an antibody was used for the experiments. The product concentration (antibody concentration) in the cell supernatant was determined by ELISA.
From selected samples, the product concentration (antibody concentration) in the supernatant was determined by ELISA (Table 3)

[3] = system: CHO cell line that expresses an antibody; settings: fed-batch, glutamine-free basal and feed media, substance 0.5-1 g/l
From the text: as §1
This is a serum-free, protein-free nutrient medium. It is a ready-made, sterile-filtered nutrient medium.
After 1-4 days the cells were supplemented with a feed medium, i.e. the process was switched to fed-batch mode. Feed took place at regular intervals. In fed-batch experiments, a protein-free and serum-free feed medium from the company HyQ (R05.2 supplement, Cat. No.: SH30584.04, Lot No.: APF21457G) was used.
All substances (chemicals) used according to the invention were obtained from the company Sigma and stock solutions were prepared from them. From the stock solutions, the substances were put at the desired final concentration in culture tubes. The various culture tubes prepared in this way were finally inoculated with the antibody-producing CHO-clone at a target inoculation cell concentration (1-3×10^5/ml). For this, the corresponding amount of inoculum cells was calculated and the required amount of inoculum cell suspension was centrifuged. […] In this way the desired inoculation cell concentration was adjusted in the cell suspension being investigated. The cell suspension thus prepared was proportioned in the culture tubes, which were provided with the substances according to the invention beforehand. The culture tubes were incubated at 37° C., and 8% CO2 atmosphere, with shaking. The culture tubes were cultivated for 8-11 days in the batch mode or in the fed-batch mode. Samples for offline measurement of the variables were taken from the culture vessels at regular intervals, for example daily or on every third day. The metabolic variables and cell concentrations of the samples were measured. Cell concentration and cell vitality were measured with a CeDex instrument. The metabolic variables (glucose, lactate, glutamine and ammonium) were determined with an analyzer (BioProfile 100).
as §2
The substances according to the invention were tested under fed-batch conditions. […] The feed medium used was from the company HyQ (R05.2 supplement, Cat. No.: SH30584.04, Lot No.: APF21457G). The feed medium was glutamine-free (Table 4).

[4] = system: CHO cell line that expresses an antibody; assay: Batch experiment with the substances according to the invention (Example 1); type: cell-based, Chinese hamster; settings: batch mode, substance 0.5-1 g/l, basal medium glucose 4.7 g/l, glutamine […]
[5] = system: CHO cell line that expresses an antibody; assay: Fed-batch experiment with the substances according to the invention (Example 2, Table 2); type: cell-based, Chinese hamster
From the text: Feed took place at regular intervals.

Question: For O=C([O-])CCC(=O)[O-].[Na+].[Na+] [Sodium succinate], which “Total Cell Density TCD” value ([1]; day 0) is on record?
Answer: 1.1 E5/ml

Question: What about the Viabil. ([1]; day 0) of the same compound?
Answer: 96%

Question: What about the “Viable Cell Density (VCD)” value ([1]; day 0) of the same compound?
Answer: 1.0 E5/ml

Question: And the “Total Cell Density TCD” value ([1]; day 3)?
Answer: 9.3 E5/ml

Question: What about the Viabil. ([1]; day 3) of the same compound?
Answer: 95%

Question: What about the “Viable Cell Density (VCD)” value ([1]; day 3) of the same compound?
Answer: 8.8 E5/ml

Question: What about the “Total Cell Density TCD” value ([1]; day 5) of the same compound?
Answer: 56.7 E5/ml

Question: What about the Viabil. ([1]; day 5) of the same compound?
Answer: 96%

Question: And the “Viable Cell Density (VCD)” value ([1]; day 5)?
Answer: 54.3 E5/ml

Question: And the “Total Cell Density TCD” value ([1]; day 7)?
Answer: 42.0 E5/ml

Question: What about the Viabil. ([1]; day 7) of the same compound?
Answer: 82%

Question: And the “Viable Cell Density (VCD)” value ([1]; day 7)?
Answer: 34.5 E5/ml

Question: What about the “Total Cell Density TCD” value ([1]; day 9) of the same compound?
Answer: 35.9 E5/ml

Question: What about the Viabil. ([1]; day 9) of the same compound?
Answer: 74%

Question: And the “Viable Cell Density (VCD)” value ([1]; day 9)?
Answer: 26.7 E5/ml

Question: And the Antibody concentration [2]?
Answer: 127%

Question: And the “Sp. Gluc cons.” value ([3]; day 0)?
Answer: 95

Question: And the “Sp. NH4 prod” value ([3]; day 0)?
Answer: 98 % of control

Question: And the TCD ([3]; day 0)?
Answer: 100 % of control

Question: What about the VCD ([3]; day 0) of the same compound?
Answer: 100 % of control

Question: And the Viabil. ([3]; day 0)?
Answer: 94%

Question: And the “Sp. Gluc cons.” value ([3]; day 3)?
Answer: 74

Question: And the “Sp. Lactate prod.” value ([3]; day 3)?
Answer: 75 % of control

Question: What about the “Sp. NH4 prod” value ([3]; day 3) of the same compound?
Answer: 72 % of control

Question: And the TCD ([3]; day 3)?
Answer: 124 % of control

Question: And the VCD ([3]; day 3)?
Answer: 132 % of control

Question: And the Viabil. ([3]; day 3)?
Answer: 95%

Question: And the “Sp. Gluc cons.” value ([3]; day 5)?
Answer: 88

Question: And the “Sp. Lactate prod.” value ([3]; day 5)?
Answer: 93 % of control

Question: And the “Sp. NH4 prod” value ([3]; day 5)?
Answer: 90 % of control

Question: What about the TCD ([3]; day 5) of the same compound?
Answer: 108 % of control

Question: And the VCD ([3]; day 5)?
Answer: 111 % of control

Question: What about the Viabil. ([3]; day 5) of the same compound?
Answer: 95%

Question: What about the “Sp. Gluc cons.” value ([3]; day 7) of the same compound?
Answer: 78

Question: And the “Sp. Lactate prod.” value ([3]; day 7)?
Answer: 89 % of control

Question: What about the “Sp. NH4 prod” value ([3]; day 7) of the same compound?
Answer: 85 % of control

Question: And the TCD ([3]; day 7)?
Answer: 118 % of control

Question: And the VCD ([3]; day 7)?
Answer: 117 % of control

Question: And the Viabil. ([3]; day 7)?
Answer: 87%

Question: What about the “Sp. Gluc cons.” value ([3]; day 9) of the same compound?
Answer: 69

Question: What about the “Sp. Lactate prod.” value ([3]; day 9) of the same compound?
Answer: 78 % of control

Question: What about the “Sp. NH4 prod” value ([3]; day 9) of the same compound?
Answer: 74 % of control

Question: And the TCD ([3]; day 9)?
Answer: 134 % of control

Question: What about the VCD ([3]; day 9) of the same compound?
Answer: 136 % of control

Question: What about the Viabil. ([3]; day 9) of the same compound?
Answer: 94%

Question: And the Gln ([4]; day 0)?
Answer: 1.53 mM

Question: And the Glucose ([4]; day 0)?
Answer: 4.69 g/L

Question: What about the Lactate ([4]; day 0) of the same compound?
Answer: 0 g/L

Question: What about the NH4 ([4]; day 0) of the same compound?
Answer: 1.22 mM

Question: And the “Specific Glutamin consumption (Gln/VCD)” value ([4]; day 0)?
Answer: 1.49

Question: What about the “Specific ammonia production (NH4/VCD)” value ([4]; day 0) of the same compound?
Answer: 1.18

Question: And the “Specific glucose consumption (Gluc/VCD)” value ([4]; day 0)?
Answer: 4.55

Question: And the “Specific lactate production (Lac/VCD)” value ([4]; day 0)?
Answer: 0.00

Question: And the “Total Cell Density TCD” value ([4]; day 0)?
Answer: 1.07 E5/ml

Question: And the Viabil. ([4]; day 0)?
Answer: 96%

Question: What about the “Viable Cell Density (VCD)” value ([4]; day 0) of the same compound?
Answer: 1.03 E5/ml

Question: And the Gln ([4]; day 3)?
Answer: 0.76 mM

Question: And the Glucose ([4]; day 3)?
Answer: 3.82 g/L

Question: What about the Lactate ([4]; day 3) of the same compound?
Answer: 0.86 g/L

Question: What about the NH4 ([4]; day 3) of the same compound?
Answer: 1.84 mM

Question: And the “Specific Glutamin consumption (Gln/VCD)” value ([4]; day 3)?
Answer: 0.09

Question: What about the “Specific ammonia production (NH4/VCD)” value ([4]; day 3) of the same compound?
Answer: 0.22

Question: What about the “Specific glucose consumption (Gluc/VCD)” value ([4]; day 3) of the same compound?
Answer: 0.47

Question: And the “Specific lactate production (Lac/VCD)” value ([4]; day 3)?
Answer: 0.10

Question: What about the “Total Cell Density TCD” value ([4]; day 3) of the same compound?
Answer: 8.3 E5/ml

Question: What about the Viabil. ([4]; day 3) of the same compound?
Answer: 99%

Question: What about the “Viable Cell Density (VCD)” value ([4]; day 3) of the same compound?
Answer: 8.2 E5/ml

Question: What about the Gln ([4]; day 6) of the same compound?
Answer: 0.31 mM

Question: What about the Glucose ([4]; day 6) of the same compound?
Answer: 2.4 g/L

Question: What about the Lactate ([4]; day 6) of the same compound?
Answer: 1.19 g/L

Question: And the NH4 ([4]; day 6)?
Answer: 2.25 mM

Question: What about the “Specific Glutamin consumption (Gln/VCD)” value ([4]; day 6) of the same compound?
Answer: 0.01

Question: And the “Specific ammonia production (NH4/VCD)” value ([4]; day 6)?
Answer: 0.05

Question: And the “Specific glucose consumption (Gluc/VCD)” value ([4]; day 6)?
Answer: 0.05

Question: What about the “Specific lactate production (Lac/VCD)” value ([4]; day 6) of the same compound?
Answer: 0.02

Question: What about the “Total Cell Density TCD” value ([4]; day 6) of the same compound?
Answer: 49.1 E5/ml

Question: And the Viabil. ([4]; day 6)?
Answer: 98%

Question: And the “Viable Cell Density (VCD)” value ([4]; day 6)?
Answer: 48.1 E5/ml

Question: What about the Gln ([4]; day 8) of the same compound?
Answer: 0.36 mM

Question: What about the Glucose ([4]; day 8) of the same compound?
Answer: 1.44 g/L

Question: And the Lactate ([4]; day 8)?
Answer: 1.14 g/L

Question: And the NH4 ([4]; day 8)?
Answer: 2.33 mM

Question: What about the “Specific Glutamin consumption (Gln/VCD)” value ([4]; day 8) of the same compound?
Answer: 0.01

Question: What about the “Specific ammonia production (NH4/VCD)” value ([4]; day 8) of the same compound?
Answer: 0.09

Question: What about the “Specific glucose consumption (Gluc/VCD)” value ([4]; day 8) of the same compound?
Answer: 0.06

Question: What about the “Specific lactate production (Lac/VCD)” value ([4]; day 8) of the same compound?
Answer: 0.04

Question: What about the “Total Cell Density TCD” value ([4]; day 8) of the same compound?
Answer: 29.8 E5/ml

Question: What about the Viabil. ([4]; day 8) of the same compound?
Answer: 86%

Question: What about the “Viable Cell Density (VCD)” value ([4]; day 8) of the same compound?
Answer: 25.6 E5/ml

Question: What about the Gln ([4]; day 11) of the same compound?
Answer: 0.52 mM

Question: What about the Glucose ([4]; day 11) of the same compound?
Answer: 0.22 g/L

Question: What about the Lactate ([4]; day 11) of the same compound?
Answer: 1.59 g/L

Question: What about the NH4 ([4]; day 11) of the same compound?
Answer: 3 mM

Question: And the “Specific Glutamin consumption (Gln/VCD)” value ([4]; day 11)?
Answer: 0.03

Question: And the “Specific ammonia production (NH4/VCD)” value ([4]; day 11)?
Answer: 0.18

Question: And the “Specific glucose consumption (Gluc/VCD)” value ([4]; day 11)?
Answer: 0.01

Question: And the “Specific lactate production (Lac/VCD)” value ([4]; day 11)?
Answer: 0.10

Question: What about the “Total Cell Density TCD” value ([4]; day 11) of the same compound?
Answer: 32.8 E5/ml

Question: What about the Viabil. ([4]; day 11) of the same compound?
Answer: 50%

Question: What about the “Viable Cell Density (VCD)” value ([4]; day 11) of the same compound?
Answer: 16.3 E5/ml

Question: And the “Total Cell Density TCD” value ([5]; day 0, fed-batch)?
Answer: 1.5 E5/ml

Question: And the Viabil. ([5]; day 0, fed-batch)?
Answer: 91%

Question: What about the “Viable Cell Density (VCD)” value ([5]; day 0, fed-batch) of the same compound?
Answer: 1.37 E5/ml

Question: What about the “Total Cell Density TCD” value ([5]; day 2, fed-batch) of the same compound?
Answer: 4.2 E5/ml and 4.4 E5/ml

Question: And the Viabil. ([5]; day 2, fed-batch)?
Answer: 98%

Question: What about the “Viable Cell Density (VCD)” value ([5]; day 2, fed-batch) of the same compound?
Answer: 4.1 E5/ml and 4.3 E5/ml

Question: What about the “Total Cell Density TCD” value ([5]; day 5, fed-batch) of the same compound?
Answer: 18.1 E5/ml

Question: What about the Viabil. ([5]; day 5, fed-batch) of the same compound?
Answer: 97%

Question: And the “Viable Cell Density (VCD)” value ([5]; day 5, fed-batch)?
Answer: 17.5 E5/ml

Question: What about the “Total Cell Density TCD” value ([5]; day 8, fed-batch) of the same compound?
Answer: 62.2 E5/ml and 64.1 E5/ml

Question: What about the Viabil. ([5]; day 8, fed-batch) of the same compound?
Answer: 90% and 92%

Question: What about the “Viable Cell Density (VCD)” value ([5]; day 8, fed-batch) of the same compound?
Answer: 55.7 E5/ml and 58.8 E5/ml
